Legend:
[1] = 298.15 K, 101.33 kPa, Liquid; for viscosity: Concentric cylinders viscometry; for mass density: Vibrating tube method
[2] = refractive index (Na D-line) (dimensionless); conditions: 298.15 K; 101.33 kPa; Liquid; Standard Abbe refractometry
[3] = xn = mol fraction of the nth substance listed; conditions: 101 kPa, Liquid, x2 = 0; for viscosity: Concentric cylinders viscometry; for mass density: Vibrating tube method
[4] = refractive index (Na D-line) (dimensionless); xn = mol fraction of the nth substance listed; conditions: 101 kPa, Liquid, Standard Abbe refractometry, x2 = 0

CCOC(=O)C(C)O (racemic) [DL-ethyl lactate]
Conditions	mass density [kg/m3]	refractive index	viscosity [mPa·s]
[1]	1028.39	–	2.39
[2]	–	1.41076	–

CN1CCCC1=O [N-methylpyrrolidone]
Conditions	mass density [kg/m3]	refractive index	viscosity [mPa·s]
[1]	1030.45	–	1.757
[2]	–	1.4687	–

CN1CCCC1=O [N-methylpyrrolidone] + CCOC(=O)C(C)O
Conditions	mass density, [3] [kg/m3]	refractive index, [4]	viscosity, [3] [mPa·s]
288.15 K	1039.4	1.47305	2.088
293.15 K	1034.92	1.47088	1.91
298.15 K	1030.45	1.4687	1.757
303.15 K	1025.99	1.46651	1.623
308.15 K	1021.52	1.46434	1.505
313.15 K	1017.07	1.46211	1.401
318.15 K	1012.61	1.45998	1.307
323.15 K	1008.16	1.45783	1.231

CCC(C)=O [butanone]
Conditions	mass density [kg/m3]	refractive index	viscosity [mPa·s]
[1]	800.872	–	0.3888
[2]	–	1.37662	–

CCC(C)=O [butanone] + CCOC(=O)C(C)O
Conditions	mass density, [3] [kg/m3]	refractive index, [4]	viscosity, [3] [mPa·s]
288.15 K	811.324	1.3817	0.4217
293.15 K	806.111	1.37918	0.4054
298.15 K	800.872	1.37662	0.3888
303.15 K	795.603	1.37402	0.3712
308.15 K	790.3	1.37138	0.3542
313.15 K	784.965	1.36871	0.3368
318.15 K	779.589	1.36615	0.3194
323.15 K	774.175	1.36338	0.3036

Cc1ccccc1 [toluene]
Conditions	mass density [kg/m3]	refractive index	viscosity [mPa·s]
[1]	862.206	–	0.567
[2]	–	1.49299	–

Cc1ccccc1 [toluene] + CCOC(=O)C(C)O
Conditions	mass density, [3] [kg/m3]	refractive index, [4]	viscosity, [3] [mPa·s]
288.15 K	871.501	1.49883	0.6251
293.15 K	866.859	1.49592	0.5961
298.15 K	862.206	1.49299	0.567
303.15 K	857.541	1.49012	0.54
308.15 K	852.861	1.48731	0.5128
313.15 K	848.164	1.48454	0.4866
318.15 K	843.444	1.48195	0.462
323.15 K	838.707	1.47928	0.4435

Reference: the NIST ThermoML archive (doi:10.1016/j.fluid.2015.04.017)
